# Source: US8476433B2, “Agent exhibiting the properties of a cognitive function promoter (embodiments)” (Unikorm, priority 2010, dated 2013)
# Key:
# [1] = Acute toxicity i/p; settings: for Therapeutic index LD50/Min. ED: LD50 i/p / minimum effective dose in CPAR; for LD50: in vivo, intraperitoneal
# [2] = tested on: learning and memory of mice, scopolamine-induced amnesia; test: Conditioned passive avoidance response (CPAR), step down method, in model of amnesia induced by scopolamine and undertraining; type: in vivo; settings: for Number of animals with CPAR (%): male mice; for effect on learning and memory during scopolamine-induced amnesia: mice, i/p before or immediately after training, tested after 2 hours and 24 hours
# Description: In order to study the activity of the synthesized compounds in vivo one of the most used methodologies of examination and assessment of activation of cognitive functions was used—improvement or easier development of conditioned passive avoidance response (CPAR) in animals. From the time of study of cognitive properties of nootropil and up to the present time, conditioned passive avoidance response (CPAR) is used more often than other behavioral procedures for studying and screening of drugs affecting the processes of learning and memory in rodents. CPAR is used for studying the action of drugs on learning (if the tested drug is administered before a training session), on saving or retention in memory (if the drug is administered after the training) and on memory retrieval (administering drugs before memory testing). This method is also used to study and test substances in models of disorders of learning and memory, caused by experimental brain dysfunction (GABA, cholinergic, induced by cholinergic toxin AF64A), alcohol-benzodiazepine induced, electrocution induced, hypoxia induced and age-related amnesias, inhibition of protein synthesis, etc..
# Comparative study of the effects of compounds 1 and 2 on learning and memory of mice in tests of conditioned passive avoidance response (CPAR) in model of amnesia, induced by the administration of scopolamine—a blocker of central cholinergic receptors.
# Studies were performed using 470 male mice, body mass 20-22 g, using 20 animals for one dose. CPAR conditioning of mice was performed using step down method, in a cell with electrode floor and avoidance area. Parameters of electric stimulation for animals leaving the safety area were 50 V during 3-5 sec. The criterion of learning and memory was the staying of the animal in the area during 1 minute when testing 2 hours after training and 24 hours after training.
# Learning deficit was induced by the administration of scopolamine (1.0 mg/kg, intraperitoneal) 15 minutes before the training and by reduction in the number of animal training sessions to 2 instead of 5 (undertraining).
# The duration of the mnemotropic action of the compounds in conditions of learning deficit was assessed by the number of animals in a group (in percents), staying in safety zone (with immobilization).
# To assess their action of different phases of memory development (fixation, consolidation and reproduction) the tested compounds were administered before the training (before scopolamine) and immediately after the training. The tested compounds were administered intraperitoneally using 2 schedules: […] and, correspondingly, 5 minutes before scopolamine, second—compounds in the same doses right after the training. Control was parallel in each series of experiments: one control group received saline solution instead of the tested compounds and scopolamine, second control group—scopolamine, using the same schedule and doses.
# Statistical analysis was conducted with significance of difference from negative control at p<0.05.
# [3] = dose 0.01 mg/kg i/p, scopolamine 1.0 mg/kg i/p amnesia
# [4] = dose 0.1 mg/kg i/p, scopolamine 1.0 mg/kg i/p amnesia
# [5] = dose 1.0 mg/kg i/p, scopolamine 1.0 mg/kg i/p amnesia
# [6] = dose 10.0 mg/kg i/p, scopolamine 1.0 mg/kg i/p amnesia
Structure (SMILES),Therapeutic index LD50/Min. ED [1],LD50 [1],"Number of animals with CPAR (%) [2, 3]","Number of animals with CPAR (%) [2, 4]","Number of animals with CPAR (%) [2, 5]","Number of animals with CPAR (%) [2, 6]",effect on learning and memory during scopolamine-induced amnesia [2],"learning ability (animals staying in safety area) after scopolamine ([2]; scopolamine 1.0 mg/kg i/p 15 minutes before training plus undertraining, average, controls about 80%)",Number of animals with CPAR (%) ([2]; scopolamine alone 1.0 mg/kg i/p (amnesia control group))
"CN1C(=O)C(=CNc2ccncc2)C(=O)N(C)C1=O [Compound 1, 1,3-dimethyl-5-[(4-pyridylamino)methylene]barbituric acid]",1530,15.3 ± 2.6 mg/kg,90.0%,80.0%,60.0%,50.0%,improved learning and memory,–,–
"Nc1cc[n+](-c2nccc3c2cc([N+](=O)[O-])c(=O)n3-c2ccccc2)cc1 [Compound 2, 4-amino-1-(3-nitro-2-oxo-1-pheny-1,2-dihydro-1,6-naphthyridin-5-yl)pyridinium chloride]",10770,108 ± 14.1 mg/kg,60%,80%,70%,60%,improved learning and memory,–,–
"CN1[C@@H]2C[C@@H](OC(=O)[C@H](CO)c3ccccc3)C[C@H]1[C@@H]1O[C@@H]12 [Scopolamine, scopolamine, reference compound]",–,–,–,–,–,–,–,28%,35%
